Data set [1] concerns the target T1, MraYBS (Bacillus subtilis, UniProt Q03521).
T1 construct: MBP; made in house
T1 sequence (Q03521 1-324): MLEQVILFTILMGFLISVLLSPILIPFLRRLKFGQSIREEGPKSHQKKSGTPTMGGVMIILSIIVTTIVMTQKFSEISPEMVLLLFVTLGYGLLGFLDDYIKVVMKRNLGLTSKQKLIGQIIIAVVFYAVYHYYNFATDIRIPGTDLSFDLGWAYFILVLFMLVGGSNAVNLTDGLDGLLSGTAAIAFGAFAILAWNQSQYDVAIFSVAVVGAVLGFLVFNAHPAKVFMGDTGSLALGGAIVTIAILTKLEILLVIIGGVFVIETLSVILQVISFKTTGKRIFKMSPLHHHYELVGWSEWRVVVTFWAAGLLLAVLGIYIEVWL
Description: MraY fluorescence enhancement assay (kinetics, inhibition). Format: biochemical. Particulars: for Inhibition Mode: Lineweaver-Burk, 6 as substrate. On the procedure: (§1) Determine kinetic parameters by MraY fluorescence enhancement assay. The fluorescence enhancement assay was performed in 384-well plate as described by Bugg et al. with slight modifications.5 The reaction mixture containing MraYBS (10 μg/mL), C55P (200 μM) in 30 μL reaction buffer (30 mM Tris, 10 mM MgCl2, 10 mM NaCl, 0.1 mM Tween-20, 2.5% DMSO, pH 8.0) were pre-incubated at 37 °C for 15 min. The reactions were initiated by the addition of various concentrations of NBD-Park’s nucleotide 6 (0 to 160 μM). For inhibition study, a various concentrations of inhibitors were added before the addition of substrate 6. The continuous fluorescence increase over 60 min was monitored with λex 466 nm/λem 535 nm by fluorescence microplate reader (SpectraMax M5, Molecular Devices, LLC) at 37 °C. Linear regressions of increased fluorescent units (FLU) versus time (min) were used to calculate the initial velocities for each reaction. The kinetic parameters values (Ki, KM, and Vmax) were obtained by nonlinear regression analysis using the […] equation with the GraphPad Prism program (GraphPad Software, San

The subject of a further data set is B. subtilis. As to the kind of experiment: Minimal inhibitory concentration, broth dilution. Particulars: Bacillus subtilis, standard broth dilution. Format: cell-based, B. subtilis (BCRC 10614). The method, then:
(§2) Determination of Minimal Inhibition Concentration (MIC). B. subtilis (BCRC 10614) and S. aureus (BCRC 11863) was obtained from Bioresource Collection and Research Center (BCRC), Taiwan. The minimal inhibitory concentration of tested compounds was determined following the NCCLS standard. The experiments were conducted in 96-well microtiter plates using 16-point 2-fold dilutions in Muller-Hilton broth. Exponentially growing cells at 5 × 10^5 cells/mL were incubated with test compounds at various concentrations in a final volume of 100 μL. After an 18 to 24 h incubation at 37 °C, the minimal concentration of the compound that prevents at least 95% bacterial growth was determined as the MIC value of a given molecule.
(§3) (1 picture or pasted object on this page, not shown here)
Background: Dilution methods test growth across graded concentrations, often in twofold steps.

The target of data set [2] is T1, MraYBS. Description: Biolayer interferometry-based (BLI) binding assay. On the procedure:
MraYBS binding was measured in a biolayer interferometry-based binding assay on Octet Red96® instrument (ForteBio, Inc.). The biotinylation of MraYBS was performed with using EZ-Link® Sulfo-NHS-LC-LC-Biotin Kit (Thermo Fisher Scientific, Inc.). In general, MraYBS (1.7 mg/mL) in 50 μL reaction buffer (0.01 M HEPES pH 7.4, 0.15 M NaCl, 0.005% v/v Surfactant P20), was added by the sulfo-NHS-LC-LC-biotin reagent (1 mM, 1 μL). After incubating for 30 minutes at room temperature, the biotinylated-MraYBS was purified by a Zeba^TM Spin Desalting Columns, 7K MWCO (Thermo Fisher Scientific, Inc.), and the buffer was changed to the binding buffer (30 mM Tris, 10 mM MgCl2, 10 mM NaCl, 0.1 mM Tween-20, pH 8.0) during the purification. Comparing to the non-biotinylated-MraYBS, the biotinylated-MraYBS remains 62% activity measured by the HPLC-based MraY functional assay in 1 h reaction. The biotinylated MraYBS was then immobilized to Super Streptavidin (SSA) Octet tips (ForteBio, Inc.) for reaching a fixed signal of 3 nm. Before the assay starting, the MraYBS-labeled SSA sensors were pre-soaked in binding buffer for 30 min. The association of Park’s analogues with MraYBS were measured by incubating MraYBS-labeled SSA sensors in binding buffer containing various concentrations of samples in Octet Red system. The dissociation was monitored by moving the ligand biosenors from the analyte solution to binding buffer. The dissociation constants (KD) were obtained by nonlinear regression analysis using the specific binding model with the GraphPad Prism program (GraphPad Software, San Diego, CA).
A general note: In BLI a coated tip is dipped into the sample, and binding shifts an interference pattern.

The next data set relates to S. aureus. As to the kind of experiment: Minimal inhibitory concentration, broth dilution. Format: cell-based, S. aureus (BCRC 11863). Conditions: Staphylococcus aureus, standard broth dilution. On the procedure:
as §2, §3

Data set [3] relates to CC(=O)N[C@H]1[C@@H](OP(=O)(O)OP(=O)(O)OC[C@H]2O[C@@H](n3ccc(=O)[nH]c3=O)[C@H](O)[C@@H]2O)O[C@H](CO)[C@@H](O)[C@@H]1O[C@H](C)C(=O)N[C@@H](C)C(=O)N[C@H](CCC(=O)N[C@@H](CCCCNC(=O)CCCCCNc1ccc([N+](=O)[O-])c2nonc12)C(=O)N[C@H](C)C(=O)N[C@H](C)C(=O)O)C(=O)O. As to the kind of experiment: Fluorescent enhancement assay, mutant MraY. Format: biochemical, Bacillus subtilis. Particulars: pH 8.0; 37.0 °C. The method, then: Site–directed mutagenesis of MraY. Site-directed mutagenesis of the B. subtilis MBP-tagged MraY enzyme was performed directly on the pMAL -BS-MraY-16 expression plasmid by using the “Quickchanged XL Site-Directed Mutagenesis Kit ’’ from stratagene and the oligonucleotides shown below. Mutations introduced in the mraY gene sequence were checked by DNA sequencing. […]
MraY-T51A-R 5’-[…]-3’
T53A MraY-T53A-F 5’-[…]-3’
MraY-T53A-R 5’-[…]-3’
K102A MraY-K102A-F 5’-[…]-3’
MraY-K102A-R 5’-[…]-3’
K226A Mray-K226A-F 5’-[…]-3’ […]
F228A MraY-F228A-F 5’-[…]-3’
MraY-F228A-R 5’-[…]-3’
Q271A Mray-Q271A-F 5’-[…]-3’
Mray-Q271A-R 5’-[…]-3’
R281A MraY-R281A-F 5’-[…]-3’
MraY-R281A-R 5’-[…]-3’
W297A MraY-W297A-F 5’-[…]-3’
MraY-W297A-R 5’-[…]-3’
as §1, §3

Data set [4] deals with T1, MraYBS. Description: HPLC-based MraY functional assay (substrate activity). Format: biochemical. Conditions: Park's nucleotides 10 μM, MraYBS 40 μg/mL, C55P 1 mM, 37 °C, 24 h. The method, then:
The purified MraY from Bacillus subtilis was prepared as described in our previous reports. […] […] The reaction mixtures were added by uridine (0.01 mg/mL) as the internal standard and heated to 100 °C to stop the transferring reaction. The samples were analyzed by RP-C18 HPLC with gradient elution of 0.25 M NH4HCO3(aq)/15% MeOH in water (100:0 to 0:100) at a flow rate of 1 mL/min over 45 min, and the peaks of substrates were monitored at UV 260 nm. For 6 and 11–17, the reaction mixture containing MraYBS (10 μg/mL), C55P (200 μM), 6-(7-Nitro-2,1,3-benzoxadiazol-4-ylamino)hexanoic acid (5 μM, internal standard) in 10 μL reaction buffer (30 mM Tris, 10 mM MgCl2, 10 mM NaCl, 0.1 mM Tween-20, 2.5% DMSO, pH 8.0) were pre-incubated at 37 °C for 15 min. […] The reaction mixtures were heated to 100 °C to stop the transferring reaction, and samples were analyzed by an anion-exchange column (SAX1, Supelco Co., 5 μm, 4.6 × 250 mm) with a linear gradient elution of NH4OAc (20 mM to 1 M in MeOH) at a flow rate of 1.0 mL/min over 30 min. The fluorescent substrates were monitored with λex 466 nm/λem 535 nm by fluorescence detector.

Substrate in data set [5]: CC(=O)N[C@H]1[C@@H](OP(=O)(O)OP(=O)(O)OC[C@H]2O[C@@H](n3ccc(=O)[nH]c3=O)[C@H](O)[C@@H]2O)O[C@H](CO)[C@@H](O)[C@@H]1O[C@H](C)C(=O)N[C@@H](C)C(=O)N[C@H](CCC(=O)N[C@@H](CCCCNC(=O)CCCCCNc1ccc([N+](=O)[O-])c2nonc12)C(=O)N[C@H](C)C(=O)N[C@H](C)C(=O)O)C(=O)O
As to the kind of experiment: MraY fluorescence enhancement assay (kinetics, inhibition). Format: biochemical, Bacillus subtilis. Conditions: other: WT MraYBS, 6 as the substrate; pH 8.0; 37.0 °C. The method, then:
as §1

The record followed here is paper PMC4987650, “Structural Investigation of Park’s Nucleotide on Bacterial Translocase MraY: Discovery of Unexpected MraY Inhibitors” (Scientific Reports, 2016).

“Also recorded” adds a separate entry of the source.

In the case of `CC(=O)N[C@H]1[C@@H](OP(=O)(O)OP(=O)(O)OC[C@H]2O[C@@H](n3cc(NC(=O)Cc4ccc(C)cc4)c(=O)[nH]c3=O)[C@H](O)[C@@H]2O)O[C@H](CO)[C@@H](O)[C@@H]1O[C@H](C)C(=O)N[C@@H](C)C(=O)O` [Compound 20], at MraYBS [1], the Ki (in general, the equilibrium dissociation constant of an inhibitor or competing ligand from its target) stood at 11 ± 3 µM; the “difference of inhibition abilities (Ki values) of 19 and 20” value turned out to be 70 fold; the “Inhibition Mode” value was “Competitive”. In addition, the minimal inhibitory concentration (MIC) – broadly, the lowest concentration found to suppress growth – with B. subtilis was above 200 µM. For the same molecule, on MraYBS [2], the Kd – broadly, the equilibrium constant for the complex coming apart – stood at 197 ± 47 µM. The “binding affinity fold stronger than that of 19” value on MraYBS [2] (ratio of KD) is recorded as “approximately 1.5 fold”. In the data set on S. aureus, this molecule gave an MIC above 200 µM.
Regarding “MraYBS K102A mutant (Bacillus subtilis subsp. subtilis str. 168; K102A)”, the Km (in general, the substrate concentration at which the rate is half of its maximum) in data set [3] came out at 49 ± 9 µM.
Take “MraYBS T53A mutant (Bacillus subtilis subsp. subtilis str. 168; T53A)”: in data set [3], the Km was found to be 70 ± 11 µM.
Same read-out and setting: the figure for “MraYBS Q271A mutant (Bacillus subtilis subsp. subtilis str. 168; Q271A)” is 72 ± 11 µM; for “MraYBS K226A mutant (Bacillus subtilis subsp. subtilis str. 168; K226A)” it is 24 ± 3 µM.
Regarding `CC(=O)N[C@H]1[C@@H](OP(=O)(O)OP(=O)(O)OC[C@H]2O[C@@H](n3cc(NC(=O)Cc4ccc(C)cc4)c(=O)[nH]c3=O)[C@H](O)[C@@H]2O)O[C@H](CO)[C@@H](O)[C@@H]1O[C@H](C)C(=O)N[C@@H](C)C(=O)N[C@H](CCC(=O)N[C@@H](CCCCN)C(=O)N[C@H](C)C(=O)N[C@H](C)C(=O)O)C(=O)O` [Compound 22], on MraYBS [1], the Ki came to 4 ± 1 µM, the “potency relative to tunicamycins (Ki)” value is on record as “approximately two-fold; also recorded: roughly twice” and the “Inhibition Mode” value is reported as “Competitive”. The same molecule yielded an MIC with B. subtilis above 200 µM. Moreover, the “substrate under extreme reaction conditions” value on MraYBS [4] is given as “not be a substrate”. This molecule also showed a Kd on MraYBS [2] of 86 ± 12 µM. In addition, the “binding affinity fold stronger than that of 20” value on MraYBS [2] (ratio of KD) is on record as “approximately 2.3 fold”. In the data set with S. aureus, the MIC is above 200 µM.
For “MraYBS T51A mutant (Bacillus subtilis subsp. subtilis str. 168; T51A)”, in data set [3], the Km came out at 24 ± 2 µM.
Same read-out and setting: the figure for “MraYBS F228A mutant (Bacillus subtilis subsp. subtilis str. 168; F228A)” is 18 ± 2 µM.
For the molecule “MraYBS R281A mutant (Bacillus subtilis subsp. subtilis str. 168; R281A)”, in data set [3], the Km turned out to be 20 ± 1 µM.
Turning to “MraYBS W297A mutant (Bacillus subtilis subsp. subtilis str. 168; W297A)”, the Km in data set [3] came to 63 ± 9 µM.

B1: MraYBS (Bacillus subtilis subsp. subtilis str. 168) (protein)
chain: MLEQVILFTILMGFLISVLLSPILIPFLRRLKFGQSIREEGPKSHQKKSGTPTMGGVMIILSIIVTTIVMTQKFSEISPEMVLLLFVTLGYGLLGFLDDYIKVVMKRNLGLTSKQKLIGQIIIAVVFYAVYHYYNFATDIRIPGTDLSFDLGWAYFILVLFMLVGGSNAVNLTDGLDGLLSGTAAIAFGAFAILAWNQSQYDVAIFSVAVVGAVLGFLVFNAHPAKVFMGDTGSLALGGAIVTIAILTKLEILLVIIGGVFVIETLSVILQVISFKTTGKRIFKMSPLHHHYELVGWSEWRVVVTFWAAGLLLAVLGIYIEVWL
notes: MBP; made in house
As to B1, the Michaelis constant (Km) in data set [5] was found to be 18 ± 1 µM.
